# Measurements: patent US8334316B2, “Substituted organosulfur compounds and methods of using thereof” (ACEA Biosciences, Inc., priority 2004, dated 2012)
# Values joined by “and” are separate entries in the source; they are usually repeats but may differ in a detail not shown here. Equal entries are not always repeated. Marks after values point to notes of the source that are not given here.
# Assays:
# A2780 cells = assay: RT-CES system cell proliferation/cytotoxicity IC50, A2780; assay type: cell-based; conditions: Homo sapiens, time point of maximum inhibition
# Excerpt: The RT-CES system comprises three components, an electronic sensor analyzer, a device station and 16× or 96× microtiter plate devices. Microelectrode sensor array was fabricated on glass slides with lithographical microfabrication methods and the electrode-containing slides are assembled to plastic trays to form electrode-containing wells. Each 16× (or 96×) microtiter plate device used in RT-CES system comprises up to 16 (or 96) such electrode-containing wells. The device station receives the 16× or 96× microtiter plate devices and is capable of electronically switching any one of the wells to the sensor analyzer for impedance measurement. In operation, the devices with cells cultured in the wells are placed into a device station that is located inside an incubator. Electrical cables connect the device station to the sensor analyzer. Under the RT-CES software control, the sensor analyzer can automatically select wells to be measured and continuously conduct impedance measurements. The impedance data from the analyzer is transferred to a computer, analyzed and processed by the integrated software.
# To quantify cell status based on the measured cell-electrode impedance, a parameter termed Cell Index is derived, according to
# [formula] where Rb(f) and Rcell(f) are the frequency dependent electrode resistances (a component of impedance) without cells or with cell present, respectively. N is the number of the frequency points at which the impedance is measured. Thus, Cell Index is a quantitative measure of the status of the cells in an electrode-containing well. Under the same physiological conditions, more cells attached on to the electrodes leads to larger Rcell(f) value, leading to a larger value for Cell Index. Furthermore, for the same number of cells present in the well, a change in the cell status such as morphology will lead to a change in the Cell Index. For example, an increase in cell adhesion or cell spreading leads to larger cell-electrode contact area which will lead to an increase in Rcell(f) and thus a larger value for Cell Index. The Cell Index may also be calculated using a formula different from the one described here. Other methods for calculating the Cell Index based on impedance measurement can be found in PCT application number PCT/US04/37696, fined on Nov. 12, 2004, PCT application number PCT/US05/04481, filed on Feb. 9, 2005, U.S. patent application Ser. No. 10/987,732, filed on Nov. 12, 2004, and U.S. patent application Ser. No. 11/055,639, filed on Feb. 9, 2005.
# A2780 cells (human […]) were seeded into wells of 16× or 96× microtiter plate devices (electronic plates, i.e., the plates comprise microelectrode sensor arrays in the wells of the plate) with an initial seeding density of 20,000 cells per well and were pre-incubated in incubator under standard cell culture conditions for about 16.4 hrs. Dibenzyl trisulfide solution in DMSO was added into wells following the incubation period. The cell status was monitored prior to and after the compound addition using RT-CES system. The cell indexes of different wells were between 2.2 and 3.7 just before the compound addition. […] The cell index was normalized against the cell index values at a time point just after compound addition (about 17.5 hrs after cell seeding).
# For the assay performed on the RT-CES system, the cells were seeded into the 16× or 96× microtiter plate devices (electronic plates, i.e., the plates comprise microelectrode sensor arrays in the wells of the plate) at the seeding density ranging from 5000 cells/well to 15,000 cells/well. The cells were incubated at 5% CO2 and 37° C. for overnight till the cell indices reached the growth phase where the cell index was between 0.8 and 1.2. Serially diluted compounds were then added to the cells followed by dynamic monitoring of the effect of the compounds on the cell proliferation and cytotoxicity. […]
# [1] = tested on: microtubules in COS cells; assay: Microtubule network in cultured COS cells (anti-tubulin immunofluorescence, confocal microscopy); assay type: cell-based
# Protocol: Cell Culture and Immunocytochemistry. COS cells were grown in DMEM media supplemented with non-essential amino acids, 10% FBS, antibiotic-antimycotic (Gibco BRL) at 37° C. and 5.5% CO2. […] Cells were then rinsed once with warm PBS, fixed with cold methanol, rinsed again in PBS and blocked overnight at 4° C. in PBT (PBS, 1% BSA, 0.5% Triton X-100). All subsequent stains and washes were done in PBT at room temperature unless stated otherwise. Cells were stained with the anti-tubulin mouse antibody DM-1 at 1:1000 for 1 hour, washed four times for 15 minutes each and then treated with Cy-3 conjugated goat anti mouse antibody at 1:100 for 1 hour in the dark. Next, samples were washed four times for 15 minutes each in PBT in the dark followed by a final 15 minute wash in PBS in the dark. Samples were then viewed by laser scanning confocal microscopy.
# HCT-8 human colon cancer = HCT-8 human colon cancer xenograft in nude mice (Example 3); assay type: in vivo; conditions: for tumor inhibition rate %: vs solvent control
# Excerpt: Both male and female mice were used. […] Test control. […] Preparation and Administration of Test Compounds. […] For human tumor xenograft model, all used materials, including animal food, animal cage, supporting materials and apparatus contacted by animals, were high-pressure sterilized. Nude mice were maintained in laminar flow shelves under SPF condition. After tumor transplantation, mouse weight and tumor size in each compound dosage group were dynamically monitored and plotted.
# [2] = 10 mg/kg/d iv x7 qd, 7 day after transplantation
# [3] = 8 mg/kg/d iv x7 qd, 7 day after transplantation
# [4] = 20 mg/kg/d iv x7 qd, 7 day after transplantation
# [5] = 20 mg/kg/d iv x7 qd, 25 d (end)
# [6] = 50 mg/kg/d iv x7 qd, 7 day after transplantation
# [7] = 50 mg/kg/d iv x7 qd, 25 d (end)
# [8] = 50 mg/kg/d iv x7 qd, 25 d (end), listed as ACEA100101
smiles,measurement,setting,value
"Cc1cccc(CSSSCc2cccc(C)c2)c1 [ACEA100116, di(m-methylbenzyl)trisulfide]",IC50,A2780 cells,0.75 µM
same,Microtubule network appearance,[1]; 4 hours exposure,"at the two higher concentrations, microtubules appear very short and abnormal"
same,Microtubule network / cell appearance,"[1]; 24 hours, 1 uM",appear relatively normal
same,Cell viability,"[1]; 24 hours, 3 uM or 9 uM",essentially all cells treated with 3 uM or 9 uM were dead
"FC(F)(F)c1cccc(CSSSCc2cccc(C(F)(F)F)c2)c1 [ACEA100117, Di(m-trifluoromethylbenzyl)trisulfide]",IC50,A2780 cells,11.8 µM
"CC(=O)O[C@H]1C(=O)[C@@]2(C)[C@H]([C@H](OC(=O)c3ccccc3)[C@]3(O)C[C@H](OC(=O)[C@H](O)[C@@H](NC(=O)c4ccccc4)c4ccccc4)C(C)=C1C3(C)C)[C@]1(OC(C)=O)CO[C@@H]1C[C@@H]2O [Taxol, paclitaxel, reference compound]",Microtubule network appearance,[1]; 4 hours exposure,Microtubules appear bundled in some locations
same,Microtubule network appearance,"[1]; 24 hours exposure, increasing dosage",increased bundling and the short microtubules persist
same,TV inhibition rate % T/C,HCT-8 human colon cancer; 10 mg/kg/d iv x7 qd,44.45%
same,Tumor weight,HCT-8 human colon cancer; 10 mg/kg/d iv x7 qd,1.02 ± 0.11 g
same,Mice with palpable tumor / total mice,HCT-8 human colon cancer; [2],6/6††
same,Tumor volume (cm^3),HCT-8 human colon cancer; [2],0.01 cm^3
same,Tumor volume (cm^3),"HCT-8 human colon cancer; 10 mg/kg/d iv x7 qd, 14 d",0.116 ± 0.03 cm^3
same,Tumor volume (cm^3),"HCT-8 human colon cancer; 10 mg/kg/d iv x7 qd, 25 d (end)",0.694 cm^3 and 0.694 ± 0.15 cm^3
same,tumor inhibition rate %,HCT-8 human colon cancer; 10 mg/kg/d iv x7 qd,33.33%
"Fc1ccc(CSSSCc2ccc(F)cc2)cc1 [ACEA100108, Di(p-fluorobenzyl)trisulfide]",IC50,A2780 cells,0.5 µM
same,Microtubule network appearance,[1]; 4 hours exposure,the microtubule network is markedly altered at all concentrations tested
same,Microtubule network appearance,"[1]; 24 hours, 1 uM and 3 uM",appear relatively normal
same,Microtubule network appearance,"[1]; 24 hours, 9 uM",the microtubules appear short and the network is abnormal
same,TV inhibition rate % T/C,HCT-8 human colon cancer; 8 mg/kg/d iv x7 qd,55.73%
same,Tumor weight,HCT-8 human colon cancer; 8 mg/kg/d iv x7 qd,1.30 ± 0.23 g
same,Mouse Body weight,"HCT-8 human colon cancer; 8 mg/kg/d iv x7 qd, 0 Day (beginning)",18.8 g and 18.8 ± 0.8 g
same,Mouse Body weight,"HCT-8 human colon cancer; 8 mg/kg/d iv x7 qd, 7 d",19.7 ± 0.8 g
same,Mice with palpable tumor / total mice,HCT-8 human colon cancer; [3],6/6††
same,Tumor volume (cm^3),HCT-8 human colon cancer; [3],0.01 cm^3
same,Mouse Body weight,"HCT-8 human colon cancer; 8 mg/kg/d iv x7 qd, 14 d",21.3 ± 1.2 g
same,Tumor volume (cm^3),"HCT-8 human colon cancer; 8 mg/kg/d iv x7 qd, 14 d",0.166 ± 0.05 cm^3
same,Mouse Body weight,"HCT-8 human colon cancer; 8 mg/kg/d iv x7 qd, 21 d",21.8 ± 1.2 g
same,Tumor volume (cm^3),"HCT-8 human colon cancer; 8 mg/kg/d iv x7 qd, 21 d",0.379 ± 0.04 cm^3
same,Mouse Body weight,"HCT-8 human colon cancer; 8 mg/kg/d iv x7 qd, 25 d (end)",22.5 g and 22.5 ± 1 g
same,Tumor volume (cm^3),"HCT-8 human colon cancer; 8 mg/kg/d iv x7 qd, 25 d (end)",0.870 cm^3 and 0.87 ± 0.15 cm^3
same,tumor inhibition rate %,HCT-8 human colon cancer; 8 mg/kg/d iv x7 qd,15.03%
same,TV inhibition rate % T/C,HCT-8 human colon cancer; 20 mg/kg/d iv x7 qd,41.89%
same,Tumor weight,HCT-8 human colon cancer; 20 mg/kg/d iv x7 qd,1.10 ± 0.23 g
same,Mouse Body weight,"HCT-8 human colon cancer; 20 mg/kg/d iv x7 qd, 0 Day (beginning)",18.5 g and 18.5 ± 1 g
same,Mouse Body weight,"HCT-8 human colon cancer; 20 mg/kg/d iv x7 qd, 7 d",19.5 ± 1 g
same,Mice with palpable tumor / total mice,HCT-8 human colon cancer; [4],6/6††
same,Tumor volume (cm^3),HCT-8 human colon cancer; [4],0.01 cm^3
same,Mouse Body weight,"HCT-8 human colon cancer; 20 mg/kg/d iv x7 qd, 14 d",20.7 ± 1 g
same,Tumor volume (cm^3),"HCT-8 human colon cancer; 20 mg/kg/d iv x7 qd, 14 d",0.122 ± 0.04 cm^3
same,Mouse Body weight,"HCT-8 human colon cancer; 20 mg/kg/d iv x7 qd, 21 d",21.8 ± 1.2 g
same,Tumor volume (cm^3),"HCT-8 human colon cancer; 20 mg/kg/d iv x7 qd, 21 d",0.317 ± 0.05 cm^3
same,Mouse Body weight,HCT-8 human colon cancer; [5],22.5 g and 22.5 ± 1 g
same,Tumor volume (cm^3),HCT-8 human colon cancer; [5],0.654 cm^3 and 0.654 ± 0.09 cm^3
same,tumor inhibition rate %,HCT-8 human colon cancer; 20 mg/kg/d iv x7 qd,28.10%
same,TV inhibition rate % T/C,HCT-8 human colon cancer; 50 mg/kg/d iv x7 qd,33.63%
same,Tumor weight,HCT-8 human colon cancer; 50 mg/kg/d iv x7 qd,0.832 ± 0.10 g
same,Mouse Body weight,"HCT-8 human colon cancer; 50 mg/kg/d iv x7 qd, 0 Day (beginning)",18.3 g and 18.3 ± 1 g
same,Mouse Body weight,"HCT-8 human colon cancer; 50 mg/kg/d iv x7 qd, 7 d",17.7 ± 1.2 g
same,Mice with palpable tumor / total mice,HCT-8 human colon cancer; [6],6/6††
same,Tumor volume (cm^3),HCT-8 human colon cancer; [6],0.01 cm^3
same,Mouse Body weight,"HCT-8 human colon cancer; 50 mg/kg/d iv x7 qd, 14 d",17.8 ± 2.3 g
same,Tumor volume (cm^3),"HCT-8 human colon cancer; 50 mg/kg/d iv x7 qd, 14 d",0.112 ± 0.02 cm^3
same,Mouse Body weight,"HCT-8 human colon cancer; 50 mg/kg/d iv x7 qd, 21 d",19.5 ± 1.6 g
same,Tumor volume (cm^3),"HCT-8 human colon cancer; 50 mg/kg/d iv x7 qd, 21 d",0.236 ± 0.02 cm^3
same,Mouse Body weight,HCT-8 human colon cancer; [7],20.3 g and 20.3 ± 1 g
same,Tumor volume (cm^3),HCT-8 human colon cancer; [7],0.525 cm^3 and 0.525 ± 0.14 cm^3
same,tumor inhibition rate %,HCT-8 human colon cancer; 50 mg/kg/d iv x7 qd,45.62%
"Clc1ccc(CSSSCc2ccc(Cl)cc2)cc1 [ACEA100118, Di(p-chlorobenzyl)trisulfide]",IC50,A2780 cells,0.7 µM
"c1ccc(CSSSCc2ccccc2)cc1 [DBTS, Dibenzyl trisulfide]",IC50,A2780 cells,0.4 µM
same,Microtubule network appearance,[1]; 4 hours exposure,The microtubule network is completely disrupted
same,Cell viability / microtubule network,"[1]; 24 hours, 6 uM or 18 uM",no cells are viable
same,TV inhibition rate % T/C,HCT-8 human colon cancer; 50 mg/kg/d iv x7 qd,32.17%
same,Tumor weight,HCT-8 human colon cancer; 50 mg/kg/d iv x7 qd,0.825 ± 0.07 g
same,Mouse Body weight,"HCT-8 human colon cancer; 50 mg/kg/d iv x7 qd, 0 Day (beginning), listed as ACEA100101",18.2 g and 18.2 ± 1.2 g
same,Mouse Body weight,"HCT-8 human colon cancer; 50 mg/kg/d iv x7 qd, 7 d",18.8 ± 1 g
same,Mice with palpable tumor / total mice,HCT-8 human colon cancer; [6],4/6††
same,Tumor volume (cm^3),HCT-8 human colon cancer; [6],0.01 cm^3
same,Mouse Body weight,"HCT-8 human colon cancer; 50 mg/kg/d iv x7 qd, 14 d",19.5 ± 1 g
same,Tumor volume (cm^3),"HCT-8 human colon cancer; 50 mg/kg/d iv x7 qd, 14 d",0.031 ± 0.02 cm^3
same,Mouse Body weight,"HCT-8 human colon cancer; 50 mg/kg/d iv x7 qd, 21 d",20.7 ± 0.8 g
same,Tumor volume (cm^3),"HCT-8 human colon cancer; 50 mg/kg/d iv x7 qd, 21 d",0.204 ± 0.03 cm^3
same,Mouse Body weight,HCT-8 human colon cancer; [8],23.0 g and 23 ± 1.3 g
same,Tumor volume (cm^3),HCT-8 human colon cancer; [8],0.502 cm^3 and 0.502 ± 0.18 cm^3
same,tumor inhibition rate %,HCT-8 human colon cancer; 50 mg/kg/d iv x7 qd,46.08%
"Clc1ccccc1CSSSCc1ccccc1Cl [ACEA100115, Di(o-chlorobenzyl)trisulfide]",IC50,A2780 cells,0.75 µM
